From ChEMBL document CHEMBL3988442, “University of Dundee, Small-Polar-MMV Screening Library” (2021)

Tests used:
[1] = microbe, parasite or virus in culture; conditions: Mycobacterium tuberculosis, 72 h, read-out: pIC50 (converted)
[2] = microbe, parasite or virus in culture; conditions: Mycobacterium tuberculosis, 96 h, read-out: pIC50 (converted)

| SMILES | IC50 [1] | IC50 [2] |
| --- | --- | --- |
| CC(=O)Nc1ccc(N2CCCCC2)nc1 | 97.2 µM | 95.3 µM |
| O=C(CN(C1=NCCCC1)c1ccccc1)c1ccc(OC(F)F)cc1 | 39.3 µM | 24.6 µM |
| CCN1C(=O)[C@H]2CN(CC(C)C)C[C@H]2C12CCN(S(C)(=O)=O)CC2 | > 50.1 µM | > 50.1 µM |
| CC(=O)c1c(F)cccc1N1CCOCC1 | > 501 µM | > 501 µM |
| O=C(CSc1ccc(F)cc1)N1CCC1 | 180 µM | > 501 µM |
| COc1cccc(SCC(=O)N2CCOC(C)C2)c1 (stereo unspecified) | > 501 µM | > 501 µM |
| COc1cccc(CCC2CCCN(C(=O)c3ccc(OC)o3)C2)c1 (stereo unspecified) | 27.7 µM | 23 µM |
| Cc1ncc(CN(C)CC(O)COCc2ccco2)s1 (stereo unspecified) | > 501 µM | > 501 µM |
| Cc1cnc(N2CCC(O)CC2)c(Br)c1 | > 501 µM | > 501 µM |
| CCC(=O)c1cccc(S(=O)(=O)NC(CN)C2CC2)c1 (stereo unspecified) | > 501 µM | > 501 µM |
| CCCOc1cccc(NC(=O)C(C)n2cncn2)c1 (stereo unspecified) | 370 µM | 331 µM |
| CN(C)CCNC(=O)c1ccn(-c2ccc3ccccn23)n1 | > 50.1 µM | > 50.1 µM |
| COc1ccc(CN2CCOC[C@H](OCCC(C)C)C2)cc1 | > 50.1 µM | > 50.1 µM |
| Cc1ccc(C(=O)NCCCN(C)S(C)(=O)=O)cc1-n1cccc1 | 30.9 µM | > 50.1 µM |
| CC(=O)Nc1ccc(N2C(=O)C=CC2=O)cc1 | 181 µM | > 501 µM |
| COc1cccc2c1OCC(C(=O)N1CCN(C3CCCC3)C(=O)C1)C2 (stereo unspecified) | > 50.1 µM | > 50.1 µM |
| c1cnnc(N2CCCC2CNCc2nc3ccccc3o2)c1 (stereo unspecified) | 29.6 µM | 32.7 µM |
| CC(=O)NCC(=O)N1CCc2nc(-c3ccccc3)nc(C)c2CC1 | > 50.1 µM | > 50.1 µM |
| Cc1ccc(OC(C)CN)cc1 (stereo unspecified) | 77 µM | 166 µM |
| O=C(c1cc(C2CC2)on1)N1CCC(Oc2ncccc2Br)CC1 | > 50.1 µM | 24.2 µM |
| CC(NC(=O)CSc1nc(=O)[nH]n1C)c1cccs1 (stereo unspecified) | 175 µM | 234 µM |
| c1cc(CNCc2ccc(-n3cncn3)nc2)cc(OC2CCCC2)c1 | 35 µM | 33.9 µM |
| COc1ccccc1NC(=O)c1ccc(C)nc1 | > 501 µM | > 501 µM |
| CCc1ccc(OCn2cc(N)cn2)cc1 | 292 µM | 134 µM |
| O=C(NCC(CO)Cc1ccc(Cl)cc1)c1ccncc1Cl (stereo unspecified) | > 50.1 µM | > 50.1 µM |
| O=C(NCc1ccc2c(c1)OCO2)Nc1nccs1 | > 501 µM | > 501 µM |

| SMILES | IC50 [1] | IC50 [2] |
| --- | --- | --- |
| CN(Cc1cnn(C)c1)C(=O)c1ccc(=O)n(C)n1 | > 50.1 µM | > 50.1 µM |
| CCOc1cc([C@H]2N[C@@H](c3nc(C)cs3)Cc3ccsc32)ccc1OC | 12.8 µM | > 50.1 µM |
| COc1cccc(CCC(=O)N2CCCC2)c1 | 2.73 µM | 8 µM |
| C=C(Br)CN1CCN(CCNC(=O)C2CCC2)CC1 | 278 µM | > 501 µM |
| COc1cn(-c2ccccc2)nc1C(=O)NCC(C)C | 282 µM | 294 µM |
| CC(C)Nc1cc(Cl)ccc1OCCS(C)(=O)=O | 191 µM | 222 µM |
| Cc1nc(CN(C)C(=O)c2nc(C(C)C)cs2)no1 | 71.2 µM | 5.83 µM |
| Nc1nnc(SCc2coc(-c3ccccc3)n2)[nH]1 | > 501 µM | > 501 µM |
| CCCc1nc(C(=O)NCCc2cccnc2)cs1 | 277 µM | 281 µM |
| O=C(Nc1cc[nH]n1)c1csc(I)c1 | 193 µM | > 501 µM |
| Nc1cc(C2CCN(C(=O)Cc3ccsc3)CC2)no1 | 264 µM | > 501 µM |
| O=C(NC1CCCOc2ccccc21)c1ccncc1 (stereo unspecified) | > 501 µM | > 501 µM |
| CNc1cc(C)nc(NCc2cc(C)cc3c(C)c(C)[nH]c23)n1 | 23.6 µM | 35.8 µM |
| CN(C)C(=O)c1nnn(-c2ccc(Br)cc2)n1 | 12.6 µM | 14.2 µM |
| COc1cccc(CNc2cncc(SC)n2)n1 | 139 µM | 176 µM |
| CCOc1ccc(N(CC(=O)c2ccccc2)C2=NCCCCC2)cc1 | 22.4 µM | 27.6 µM |
| Cc1ccc2nc(-c3cnc(N)nc3)c(C)c(C(=O)N(C)C)c2c1 | > 50.1 µM | > 50.1 µM |
| NCC(O)c1ccc(Cl)cc1Cl (stereo unspecified) | 304 µM | > 501 µM |
| CC1CCN(C(=O)C(C)Oc2ccc3c(c2)OCO3)CC1 (stereo unspecified) | 30.1 µM | 38.9 µM |
| CC(C)c1nnc2n1CCN(C(=O)c1ccc(-n3cnnc3)cc1)C2 | > 50.1 µM | > 50.1 µM |
| Cc1cccc(CN2C[C@H]3CC[C@@H]2CN(Cc2[nH]cnc2C)C3)n1 | > 50.1 µM | > 50.1 µM |
| O=C(c1cc(C2CCCC2)no1)N1CCCCC1 | 2.4 µM | 4.9 µM |
| NCc1cc(N[C@H](CO)CC2CCCCC2)ncn1 | 296 µM | > 501 µM |
| COC(=O)[C@H](C)NC(=O)C1(c2ccccc2F)CC1 | 187 µM | > 501 µM |
| CCOCc1cnc2n1CCN(C(=O)Cc1ccccn1)C2C (stereo unspecified) | > 50.1 µM | > 50.1 µM |
| Cn1cc(NC(=O)c2ccc(Br)s2)cc1C(N)=O | 341 µM | 285 µM |

| SMILES | IC50 [1] | IC50 [2] |
| --- | --- | --- |
| O=C(Nc1cccnc1N1CCC(CO)CC1)C1CC1 | > 501 µM | 53.6 µM |
| CC1CCCN(c2nc(C(=O)N3CCOCC3)cs2)C1 (stereo unspecified) | 133 µM | 146 µM |
| CC1CN(CCC(=O)NCc2cccs2)CCCO1 (stereo unspecified) | > 501 µM | > 501 µM |
| CCOC(=O)N1CCN(Cc2nc(C3CC3)no2)CC1 | 93.9 µM | 109 µM |
| c1ccc(-c2noc(CN3CCCC3)n2)cc1 | 63.9 µM | 82.1 µM |
| COCc1nn(Cc2cccc3cccnc23)c(=O)o1 | 16.8 µM | 51.6 µM |
| O=C(NCCO)c1cc2c(F)cc(Br)cc2[nH]1 | 257 µM | > 501 µM |
| CCN(CCO)Cc1cc(-c2cccs2)on1 | 145 µM | > 501 µM |
| COc1cccc(-c2noc(-c3ccc(NCCCO)nc3)n2)c1OC | > 50.1 µM | 21.2 µM |
| CCCn1nc(C(=O)NCc2csc(Br)c2)ccc1=O | 222 µM | 154 µM |
| O=C(Cn1ccc2ccccc21)N1CCCC1 | 60 µM | 162 µM |
| CNc1cc(C(=O)NCC(OC)c2cccs2)ccn1 (stereo unspecified) | 22.9 µM | > 501 µM |
| NCC(c1cccs1)N1CCCC1 (stereo unspecified) | 156 µM | 494 µM |
| Cc1cc(CN(C)CC2(O)CCCN(CCC3CCCCC3)C2=O)no1 (stereo unspecified) | > 50.1 µM | > 50.1 µM |
| CC(=O)Nc1ccc(C(=O)N(C)Cc2cccs2)cc1 | 307 µM | 272 µM |
| N#CCC1(O)CN(S(=O)(=O)C=Cc2ccc(Cl)cc2)C1 | 287 µM | > 501 µM |
| COc1ccc2nnc(C(=O)NCC3CCCC3)nc2c1 | 12.3 µM | > 50.1 µM |
| Cn1nc(C(F)(F)F)c(Cl)c1C(=O)N[C@@H]1CCNC1 | 168 µM | > 501 µM |
| O=C(Nc1cc(F)cc(F)c1)c1ccncc1 | 224 µM | > 501 µM |
| COc1ccc(-c2noc(CN3CCN(c4cnccn4)CC3)n2)cc1 | 47 µM | 33.8 µM |
| Cc1cc(N(C)Cc2ccsc2)n2nc(C)c(C)c2n1 | 12.6 µM | 12.6 µM |
| NCc1cccc(-c2nc(-c3ccncc3)no2)c1 | > 501 µM | 286 µM |
| COc1ccc(C(=O)CCN(C)C)cc1OC | 276 µM | 285 µM |
| CCCC1C=CCN1C(=O)c1cc(COc2ccc3c(c2)OCO3)[nH]n1 (stereo unspecified) | > 50.1 µM | 11.8 µM |
| CNC(=O)NC(=O)CCN1CCN(S(C)(=O)=O)CC1 | 245 µM | > 501 µM |
| CC(C)NC(=O)Nc1cccc(S(=O)(=O)C(F)F)c1 | 264 µM | 219 µM |

| SMILES | IC50 [1] | IC50 [2] |
| --- | --- | --- |
| Cn1ccsc1=NC(=O)c1ccc(OCC(N)=O)cc1 | > 501 µM | > 501 µM |
| CN(Cc1ccc(Br)cc1)C(=O)CSc1nc(N)n[nH]1 | 152 µM | > 501 µM |
| N[C@@H]1C[C@H]1c1c(F)cccc1F | > 501 µM | > 501 µM |
| Nc1ccc(CNc2nc(C3CC3)ns2)cn1 | > 501 µM | > 501 µM |
| CN(Cc1cccc(OC(F)(F)F)c1)C(=O)c1cnsn1 | 24.3 µM | 33.3 µM |
| Cn1cc(CC(=O)Nc2ccc(I)cn2)cn1 | 283 µM | > 501 µM |
| Cc1cc(Br)oc1C(=O)N1CCCN(C)CC1 | 248 µM | > 501 µM |
| COc1ccc([C@@H]2C[C@H](NC(C)=O)C[C@H](Cc3ccccc3)O2)cn1 | > 50.1 µM | 28.3 µM |
| CC(=O)c1ccc(S(C)(=O)=O)c(N2CCC(C)(C)C2)c1 | > 501 µM | > 501 µM |
| CC(=O)N1CCC(CN(C)Cc2ccc(Br)o2)C1 (stereo unspecified) | > 501 µM | > 501 µM |
| Cc1oc(C)c(C(=O)NCC(=O)N2CCCC2)c1C | > 501 µM | > 501 µM |
| CNCC(=O)NC1CCN(Cc2ccc(Br)cc2)CC1 | 257 µM | 294 µM |
| COc1ccc(C(=O)Nc2nonc2NC(C)=O)cc1 | > 501 µM | 96.4 µM |
| COCCc1noc(CNC2CCCC(C)(C)C2)n1 (stereo unspecified) | 2.66 µM | > 50.1 µM |
| O=C(NCC1CCN(C2CC2)C1)c1ccccc1F (stereo unspecified) | 423 µM | 376 µM |
| CCOc1ccc(CC(=O)N2CCN(CC)CC2)cc1 | 371 µM | > 501 µM |
| COCCC(=O)N1CCN(CC2CC2)c2ccccc21 | 11.7 µM | > 50.1 µM |
| CN1C(=O)c2ccc(C(=O)NC3CC3)cc2C1=O | > 501 µM | > 501 µM |
| CCCn1nnc(NC(=O)c2ccccc2F)n1 | 59.9 µM | > 501 µM |
| COc1ccnc(N2CCCNCC2)n1 | 229 µM | > 501 µM |
| Cc1ccncc1NC1CS(=O)(=O)c2ccccc21 (stereo unspecified) | 27.1 µM | 43.2 µM |
| CCc1cccc2c1OCCC2N (stereo unspecified) | > 501 µM | > 501 µM |
| CCOCC(=O)NC(C)Cc1ccccc1Br (stereo unspecified) | 0.928 µM | 0.742 µM |
| CCNC(=O)c1ccn(-c2ccccc2)n1 | 340 µM | 232 µM |
| COc1cccc(OCC(=O)NCC2CCCO2)c1 (stereo unspecified) | 194 µM | 145 µM |
